Assay results published in patent US20260167622A1, “PAN-KRAS DEGRADING AGENT, AND PREPARATION METHOD THEREFOR AND USE THEREOF” (LEADINGTAC PHARMACEUTICAL (SHAOXING) CO., LTD., priority 2022, published 2026).

What was measured:
[1] = biological target: T1, KRAS G12V protein in SW900 cells (Homo sapiens, UniProt P01116, G12V); assay: KRAS degradation assay (Western Blot) in SW900 cells; assay type: cell-based; conditions: 24 h
T1 construct: endogenous in cells; host or cells: SW900
How it was run: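 Cells seeded at 5×10^5 cells/well, incubated overnight, then treated 24 h at 37 °C with compound (final 0.03–3000 nM, 0.25% DMSO). KRAS in lysates measured by Western blot with β-actin normalisation; degradation versus vehicle control fitted to give DC50 and Dmax.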

Human KRAS G12V = biological target: T2, Human KRAS G12V (Homo sapiens, UniProt P01116, G12V); assay: KRAS-G12V/GTP binding assay (HTRF kit); conditions: 25° C., 1 h
T2 construct: purchased PerkinElmer
Description: Test Example 2: KRAS G12V Binding Assay
In this method, the inhibitory effects of the compounds on the binding of KRAS G12V to GTP were assayed by a homogeneous time-resolved fluorescence (HTRF) technique using a KRAS-G12V/GTP binding assay kit (PerkinElmer).
The experimental procedures were as follows (refer to the kit instructions for detailed test methods): the compounds of the present disclosure were each firstly dissolved in DMSO at a concentration of 20 mM, and then diluted in an equal gradient with a buffer in the kit, so that the final concentrations of the test compounds in the reaction system were in a range of 0.02-5000 nM, and the final concentration of DMSO was 0.5%. 5 μL of each compound was incubated with 5 μL of 1× Human KRAS G12V 6His-tagged (PerkinElmer), 5 µL of 1×6His Eu Cryptate Antibody (PerkinElmer), and 5 μL of 1×GTP Red reagent (PerkinElmer) in a 384-well plate (Greiner) at 25° C. for 1 h. After the incubation was completed, the fluorescence intensity of each well was measured at the excitation wavelength of 337 nm and the emission wavelengths of 620 nm and 665 nm with an EnVision microplate reader (PerkinElmer) in the HTRF mode, and Ratio values were calculated using the formula: Ratio=(665 nm/620 nm)×10^4. The inhibition rates of the compounds at each concentration were calculated by comparing the fluorescence intensity ratio with that of the control group. Then non-linear curve fittings for logarithmic concentration-inhibition rate were performed using the GraphPad Prism 8 analysis software, and the IC50 values of the compounds were obtained (Table 3).

[2] = test system: KRAS WT human gastric cancer cell MKN1; assay: 3D cell proliferation inhibition assay, MKN1; assay type: cell-based; conditions: MKN-1, 168 h, 3D culture, 7 days, CTG
How it was run: (§1)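 Cells were seeded in low-adsorption 96-well plates at 5×10^2 cells/well (MKN1 at 1×10^3) with compounds at final 10000-0.026 nM, 0.2% DMSO, and grown 7 days at 37° C. CTG luminescence gave inhibition relative to DMSO and medium-only controls, and IC50 came from a log-concentration curve fit.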

[3] = test system: KRAS G12V mutant human colorectal cancer cell SW620; assay: 3D cell proliferation inhibition assay, SW620; assay type: cell-based; conditions: SW-620, 168 h, 3D culture, 7 days, CTG
How it was run: as §1

[4] = test system: KRAS G12V mutant human lung squamous carcinoma cell SW900; assay: 3D cell proliferation inhibition assay, SW900; assay type: cell-based; conditions: SW900, 168 h, 3D culture, 7 days, CTG
[5] = test system: KRAS G12D mutant human metastatic pancreatic cancer cell AsPc-1; assay: 3D cell proliferation inhibition assay, AsPc-1; assay type: cell-based; conditions: ASPC1, 168 h, 3D culture, 7 days, CTG
How it was run: as §1

KRAS-G12D mutant cells = conditions: background, J. Med. Chem. 2022, 65, 3923-3942; cited from earlier work

T2 sequence (P01116 1-188 isoform P01116-2 G12V): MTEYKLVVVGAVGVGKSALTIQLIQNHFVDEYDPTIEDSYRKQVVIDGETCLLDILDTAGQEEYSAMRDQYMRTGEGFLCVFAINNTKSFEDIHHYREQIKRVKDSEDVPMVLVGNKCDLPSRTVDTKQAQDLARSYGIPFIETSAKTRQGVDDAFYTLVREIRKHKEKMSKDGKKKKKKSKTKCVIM
T1 sequence (P01116 1-188 isoform P01116-2 G12V): as above

## C#Cc1c(F)ccc2cc(O)cc(-c3ncc4c(N5CCC[C@@](C)(O)C5)nc(OCC56CC(CN7CCN(CC8CCC9(CC8)CCN(C(=O)c8ccc(C)c(N%10CCC(=O)NC%10=O)c8)CC9)CC7)(C5)C6)nc4c3F)c12 [Example 14, (R)-1-(5-(9-((4-((3-(((7-(8-ethynyl-7-fluoro-3-hydroxynaphthalen-1-yl)-8-fluoro-4-(3-hydroxy-3-methylpiperidin-1-yl)pyrido[4,3-d]pyrimidin-2-yl)oxy)methyl)bicyclo[1.1.1]pent-1-yl)methyl)piperazin-1-yl)methyl)-3-azaspiro[5.5]undecane-3-carbonyl)-2-methylphenyl)dihydropyrimidine-2,4(1H,3H)-dione]
[1]
  DC50: ≤ 0.05 µM
  Dmax: 50 to 80%
Human KRAS G12V
  IC50: ≤ 0.5 µM

## C#Cc1c(F)ccc2cc(O)cc(-c3ncc4c(N5CCC[C@@](C)(O)C5)nc(OCC5(CN6CCN(C(=O)c7ccc(Cl)c(N8CCC(=O)NC8=O)c7)CC6)CC5)nc4c3F)c12 [Example 15, (R)-1-(2-chloro-5-(4-((1-(((7-(8-ethynyl-7-fluoro-3-hydroxynaphthalen-1-yl)-8-fluoro-4-(3-hydroxy-3-methylpiperidin-1-yl)pyrido[4,3-d]pyrimidin-2-yl)oxy)methyl)cyclopropyl)methyl)piperazine-1-carbonyl)phenyl)dihydropyrimidine-2,4(1H,3H)-dione]
Human KRAS G12V
  IC50: ≤ 0.5 µM

## C#Cc1c(F)ccc2cc(O)cc(-c3ncc4c(N5CCC[C@@](C)(O)C5)nc(OCC5(CN6CCC7(CC6)CCN(C(=O)c6ccc(Cl)c(N8CCC(=O)NC8=O)c6)CC7)CC5)nc4c3F)c12 [Example 16, (R)-1-(2-chloro-5-(9-((1-(((7-(8-ethynyl-7-fluoro-3-hydroxynaphthalen-1-yl)-8-fluoro-4-(3-hydroxy-3-methylpiperidin-1-yl)pyrido[4,3-d]pyrimidin-2-yl)oxy)methyl)cyclopropyl)methyl)-3,9-diazaspiro[5.5]undecane-3-carbonyl)phenyl)dihydropyrimidine-2,4(1H,3H)-dione]
Human KRAS G12V
  IC50: ≤ 0.5 µM

## C#Cc1cccc2cc(O)cc(-c3ncc4c(N5CCC[C@@](C)(O)C5)nc(OCC5(CN6CCN(CC7CCC8(CC7)CCN(C(=O)c7ccc(OC)c(N9CCC(=O)NC9=O)c7)CC8)CC6)CC5)nc4c3F)c12 [Example 29, (R)-1-(5-(9-((4-((1-(((7-(8-ethynyl-3-hydroxynaphthalen-1-yl)-8-fluoro-4-(3-hydroxy-3-methylpiperidin-1-yl)pyrido[4,3-d]pyrimidin-2-yl)oxy)methyl)cyclopropyl)methyl)piperazin-1-yl)methyl)-3-azaspiro[5.5]undecane-3-carbonyl)-2-methoxyphenyl)dihydropyrimidine-2,4(1H,3H)-dione]
[2]
  IC50: ≤ 0.05 µM
[1]
  DC50: ≤ 0.05 µM
  Dmax: 80 to 100%
Human KRAS G12V
  IC50: ≤ 0.5 µM
[3]
  IC50: 0.00446 µM
[4]
  IC50: ≤ 0.05 µM
[5]
  IC50: ≤ 0.05 µM

## C#Cc1c(F)ccc2cc(O)cc(-c3ncc4c(N(C)C5CC5)nc(OCC5(CN6CCN(CC7CCC8(CC7)CCN(C(=O)c7ccc(OC)c(N9CCC(=O)NC9=O)c7)CC8)CC6)CC5)nc4c3F)c12 [Example 30, 1-(5-(9-((4-((1-(((4-(cyclopropyl(methyl)amino)-7-(8-ethynyl-7-fluoro-3-hydroxynaphthalen-1-yl)-8-fluoropyrido[4,3-d]pyrimidin-2-yl)oxy)methyl)cyclopropyl)methyl)piperazin-1-yl)methyl)-3-azaspiroundecane-3-carbonyl)-2-methoxyphenyl)dihydropyrimidine-2,4(1H,3H)-dione]
[1]
  DC50: ≤ 0.05 µM
  Dmax: 50 to 80%
Human KRAS G12V
  IC50: 0.5 to 1 µM

## Cc1ccc(C(=O)N2CCC3(CCC(CN4CCN(CC5(COc6nc(N7CCC[C@@](C)(O)C7)c7cnc(-c8cc(O)cc(Cl)c8C8CC8)c(F)c7n6)CC5)CC4)CC3)CC2)cc1N1CCC(=O)NC1=O [Example 40, (R)-1-(5-(9-((4-((1-(((7-(3-chloro-2-cyclopropyl-5-hydroxyphenyl)-8-fluoro-4-(3-hydroxy-3-methylpiperidin-1-yl)pyrido[4,3-d]pyrimidin-2-yl)oxy)methyl)cyclopropyl)methyl)piperazin-1-yl)methyl)-3-azaspiro[5.5]undecane-3-carbonyl)-2-methylphenyl)dihydropyrimidine-2,4(1H,3H)-dione]
[1]
  DC50: ≤ 0.05 µM
  Dmax: 80 to 100%
Human KRAS G12V
  IC50: 0.5 to 1 µM

## C#Cc1c(F)ccc2cc(O)cc(-c3ncc4c(N5CC6CCC(C5)N6)nc(OC[C@@]56CCCN5C[C@H](F)C6)nc4c3F)c12 [MRTX1133]
KRAS-G12D mutant cells
  specificity for KRAS-G12D mutant cells over wild-type tumor cells: more than 1000 times
